Measurements: patent US4725683A, “Fluorophenoxyphenoxypropionates and derivatives thereof” (The Dow Chemical Company, priority 1985, dated 1988)
Like-named read-outs stand apart in the source and are kept apart here.

What was measured:
Assay type in all cases: in vivo
Wild Oats = assay: Postemergent activity; settings: Avena fatua, post-emergence, 336 h
In short: (§1)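 Pots of plants about 10 cm tall sprayed to run-off at 125, 62.5, 31.25, 15.6, 7.8 and 3.9 ppm. Spray: active in acetone mixed with an equal volume of water containing 0.1% TWEEN 200. Growth scored two weeks later on a 0–100 scale (0 no effect, 100 complete kill).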

Wheat [1] = assay: Postemergent activity; settings: Triticum aestivum, post-emergence, 336 h, read-out: % Control
In short: as §1

Cheatgrass = assay: Postemergent activity
Procedure: (§2) Representative compositions of the present invention were evaluated for the postemergence control of species of plants listed in Table A. In these evaluations, pots of the plant species listed in Table A, grown to a height of about 10 cms, were used. […] The spray compositions were made by mixing the active ingredient in acetone to 1/2 the final volume, i.e., twice the final concentration. An equal amount of water was added to the active ingredient/acetone mixture wherein the water contained 0.1 percent by weight of TWEEN® 200 surfactant. The application to the plants was made to the point of run-off and was carried out with conventional spraying equipment. […] Thereafter, the pots were maintained under conditions conducive for plant growth.

Yellow Foxtail = assay: Postemergent activity
Procedure: as §2

Green Foxtail [2] = assay: Postemergent activity
Procedure: as §2

Blackgrass [3] = assay: Postemergent activity
Procedure: as §2

Barley = assay: Postemergent activity
Procedure: as §2

Green Foxtail [4] = assay: Selective postemergence, track sprayer
Procedure: (§3) Representative compositions of the present invention were evaluated for the postemergence control of species of plants listed in Table A. In these evaluations, pots of the plant species listed in Table A, grown to a height of about 10 cms, were used. Aqueous spray compositions, containing various amounts of 2-[4-(2-fluoro-4-trifluoromethylphenoxy)-phenoxy]propionic acid methy ester, i.e., 125 ppm, 62.5 ppm, 31.25 ppm, 15.6 ppm, 7.8 ppm and 3.9 ppm, respectively, were applied to separate pots. The spray compositions were made by mixing the active ingredient in acetone to 1/2 the final volume, i.e., twice the final concentration. An equal amount of water was added to the active ingredient/acetone mixture wherein the water contained 0.1 percent by weight of TWEEN® 200 surfactant. The application to the plants was made to the point of run-off and was carried out with conventional spraying equipment. Other pots were sprayed with similar compositions containing no toxicant to serve as controls. Thereafter, the pots were maintained under conditions conducive for plant growth. Two weeks after treatment, the pots were examined for plant growth and evaluated on a scale of 0 to 100 where 0 represents no effect and 100 represents complete kill. The results of the examination of the treated pots are set forth below in Table A.
(§4) To further define the selective postemergence herbicidal characteristics of compounds of the present invention, chemicals were applied to additional species of grasses as listed in Table F. Chemicals evaluated were 2-[4-(4-bromo-2-fluorophenoxy)phenoxy]propionic acid methyl ester and its R isomer. Treatment conditions were similar to those described in Example A except that chemicals were delivered through a track sprayer set to deliver the appropriate dosages in 280.6 L/hectare of water containing 0.1% Tween-20 surfactant.

Blackgrass [5] = assay: Selective postemergence, track sprayer
Procedure: as §3, §4

Wheat [6] = assay: Selective postemergence, track sprayer
Procedure: as §3, §4

Wild Proso Millet = assay: Selective postemergence, track sprayer
Procedure: as §3, §4

Structure (SMILES): COC(=O)[C@@H](C)Oc1ccc(Oc2ccc(Br)cc2F)cc1 [4-Bromo-(R-Enantiomer), R enantiomer of 2-[4-(4-bromo-2-fluorophenoxy)phenoxy]propionic acid methyl ester]
- pest or weed control at 1.9 ppm (Wild Oats; 1.9 ppm): 60%
- pest or weed control at 3.9 ppm (Wild Oats): 80%
- pest or weed control at 7.8 ppm (Wild Oats; read-out: % Control): 80%
- pest or weed control at 15.6 ppm (Wild Oats; 15.6 ppm, read-out: % Control): 90%
- pest or weed control at 31.25 ppm (Wild Oats; 31.25 ppm, read-out: % Control): 90%
- pest or weed control at 62.5 ppm (Wild Oats; 62.5 ppm, read-out: % Control): 100%
- pest or weed control at 125 ppm (Wild Oats; 125 ppm, read-out: % Control): 100%
- pest or weed control at 250 ppm (Wild Oats; 250 ppm, read-out: % Control): 100%
- plant injury at 1.9 ppm (Wheat [1]; 1.9 ppm): 0%
- plant injury at 3.9 ppm (Wheat [1]): 0%
- plant injury at 7.8 ppm (Wheat [1]): 0%
- plant injury at 15.6 ppm (Wheat [1]; 15.6 ppm): 0%
- plant injury at 31.25 ppm (Wheat [1]; 31.25 ppm): 0%
- plant injury at 62.5 ppm (Wheat [1]; 62.5 ppm): 0%
- plant injury at 125 ppm (Wheat [1]; 125 ppm): 70%
- plant injury at 250 ppm (Wheat [1]; 250 ppm): 100%
- % Control (Cheatgrass; 0.1 ppm): 0%
- % Control (Cheatgrass; 0.2 ppm): 0%
- % Control (Cheatgrass; 0.4 ppm): 0%
- % Control (Cheatgrass; 0.8 ppm): 0%
- % Control (Cheatgrass; 1.5 ppm): 0%
- % Control (Cheatgrass; 3.1 ppm): 0%
- % Control (Cheatgrass; 6.3 ppm): 0%
- % Control (Cheatgrass; 12.5 ppm): 0%
- % Control (Yellow Foxtail; 0.1 ppm): 0%
- % Control (Yellow Foxtail; 0.2 ppm): 0%
- % Control (Yellow Foxtail; 0.4 ppm): 0%
- % Control (Yellow Foxtail; 0.8 ppm): 20%
- % Control (Yellow Foxtail; 1.5 ppm): 60%
- % Control (Yellow Foxtail; 3.1 ppm): 100%
- % Control (Yellow Foxtail; 6.3 ppm): 100%
- % Control (Yellow Foxtail; 12.5 ppm): 100%
- % Control (Green Foxtail [2]; 0.1 ppm): 0%
- % Control (Green Foxtail [2]; 0.2 ppm): 50%
- % Control (Green Foxtail [2]; 0.4 ppm): 100%
- % Control (Green Foxtail [2]; 0.8 ppm): 100%
- % Control (Green Foxtail [2]; 1.5 ppm): 100%
- % Control (Green Foxtail [2]; 3.1 ppm): 100%
- % Control (Green Foxtail [2]; 6.3 ppm): 100%
- % Control (Green Foxtail [2]; 12.5 ppm): 100%
- % Control (Blackgrass [3]; 0.1 ppm): 0%
- % Control (Blackgrass [3]; 0.2 ppm): 0%
- % Control (Blackgrass [3]; 0.4 ppm): 50%
- % Control (Blackgrass [3]; 0.8 ppm): 60%
- % Control (Blackgrass [3]; 1.5 ppm): 90%
- % Control (Blackgrass [3]; 3.1 ppm): 90%
- % Control (Blackgrass [3]; 6.3 ppm): 100%
- % Control (Blackgrass [3]; 12.5 ppm): 100%
- % Control (Barley; 1.9 ppm): 0%
- % Control (Barley; 3.9 ppm): 0%
- % Control (Barley; 7.8 ppm): 0%
- % Control (Barley; 15.6 ppm): 0%
- % Control (Barley; 31.25 ppm): 0%
- % Control (Barley; 62.5 ppm): 95%
- % Control (Barley; 125 ppm): 90%
- % Control (Barley; 250 ppm): 100%
- Percent Control (Green Foxtail [4]; 0.00055 kgs/hectare): 30%
- Percent Control (Green Foxtail [4]; 0.0011 kgs/hectare): 70%
- Percent Control (Green Foxtail [4]; 0.0023 kgs/hectare): 90%
- Percent Control (Green Foxtail [4]; 0.0045 kgs/hectare): 95%
- Percent Control (Green Foxtail [4]; 0.009 kgs/hectare): 95%
- Percent Control (Green Foxtail [4]; 0.018 kgs/hectare): 100%
- Percent Control (Green Foxtail [4]; 0.035 kgs/hectare): 100%
- Percent Control (Green Foxtail [4]; 0.07 kgs/hectare): 100%
- Percent Control (Green Foxtail [4]; 0.14 kgs/hectare): 100%
- Percent Control (Green Foxtail [4]; 0.28 kgs/hectare): 100%
- Percent Control (Blackgrass [5]; 0.00055 kgs/hectare): 50%
- Percent Control (Blackgrass [5]; 0.0011 kgs/hectare): 60%
- Percent Control (Blackgrass [5]; 0.0023 kgs/hectare): 60%
- Percent Control (Blackgrass [5]; 0.0045 kgs/hectare): 60%
- Percent Control (Blackgrass [5]; 0.009 kgs/hectare): 80%
- Percent Control (Blackgrass [5]; 0.018 kgs/hectare): 100%
- Percent Control (Blackgrass [5]; 0.035 kgs/hectare): 100%
- Percent Control (Blackgrass [5]; 0.07 kgs/hectare): 100%
- Percent Control (Blackgrass [5]; 0.14 kgs/hectare): 100%
- Percent Control (Blackgrass [5]; 0.28 kgs/hectare): 100%
- Percent Control (Wheat [6]; 0.00055 kgs/hectare): 0%
- Percent Control (Wheat [6]; 0.0011 kgs/hectare): 0%
- Percent Control (Wheat [6]; 0.0023 kgs/hectare): 0%
- Percent Control (Wheat [6]; 0.0045 kgs/hectare): 0%
- Percent Control (Wheat [6]; 0.009 kgs/hectare): 0%
- Percent Control (Wheat [6]; 0.018 kgs/hectare): 0%
- Percent Control (Wheat [6]; 0.035 kgs/hectare): 0%
- Percent Control (Wheat [6]; 0.07 kgs/hectare): 0%
- Percent Control (Wheat [6]; 0.14 kgs/hectare): 0%
- Percent Control (Wheat [6]; 0.28 kgs/hectare): 0%
- Percent Control (Wild Proso Millet; 0.00055 kgs/hectare): 30%
- Percent Control (Wild Proso Millet; 0.0011 kgs/hectare): 30%
- Percent Control (Wild Proso Millet; 0.0023 kgs/hectare): 80%
- Percent Control (Wild Proso Millet; 0.0045 kgs/hectare): 100%
- Percent Control (Wild Proso Millet; 0.009 kgs/hectare): 95%
- Percent Control (Wild Proso Millet; 0.018 kgs/hectare): 100%
- Percent Control (Wild Proso Millet; 0.035 kgs/hectare): 100%
- Percent Control (Wild Proso Millet; 0.07 kgs/hectare): 100%
- Percent Control (Wild Proso Millet; 0.14 kgs/hectare): 100%
- Percent Control (Wild Proso Millet; 0.28 kgs/hectare): 100%

Structure (SMILES): COC(=O)C(C)Oc1ccc(Oc2ccc(C(F)(F)F)cc2F)cc1 (stereo not shown) [2-[4-(2-fluoro-4-trifluoromethylphenoxy)phenoxy]propionic acid methyl ester]
- pest or weed control at 3.9 ppm (Wild Oats): 0%
- pest or weed control at 7.8 ppm (Wild Oats; read-out: % Control): 0%
- pest or weed control at 15.6 ppm (Wild Oats; 15.6 ppm, read-out: % Control): 60%
- pest or weed control at 31.25 ppm (Wild Oats; 31.25 ppm, read-out: % Control): 100%
- pest or weed control at 62.5 ppm (Wild Oats; 62.5 ppm, read-out: % Control): 100%
- pest or weed control at 125 ppm (Wild Oats; 125 ppm, read-out: % Control): 100%
- plant injury at 3.9 ppm (Wheat [1]): 0%
- plant injury at 7.8 ppm (Wheat [1]): 60%
- plant injury at 15.6 ppm (Wheat [1]; 15.6 ppm): 90%
- plant injury at 31.25 ppm (Wheat [1]; 31.25 ppm): 100%
- plant injury at 62.5 ppm (Wheat [1]; 62.5 ppm): 100%
- plant injury at 125 ppm (Wheat [1]; 125 ppm): 100%
- % Control (Yellow Foxtail; 3.9 ppm): 35%
- % Control (Yellow Foxtail; 7.8 ppm): 100%
- % Control (Yellow Foxtail; 15.6 ppm): 100%
- % Control (Yellow Foxtail; 31.25 ppm): 100%
- % Control (Yellow Foxtail; 62.5 ppm): 100%
- % Control (Yellow Foxtail; 125 ppm): 100%

Structure (SMILES): COC(=O)C(C)Oc1ccc(Oc2ccc(Cl)cc2F)cc1 (racemic) [Example 4-Chloro-, 2-[4-(4-chloro-2-fluorophenoxy)phenoxy]propionic acid methyl ester]
- pest or weed control at 15.6 ppm (Wild Oats; read-out: % Control): 40%
- pest or weed control at 31.25 ppm (Wild Oats; read-out: % Control): 100%
- pest or weed control at 62.5 ppm (Wild Oats; read-out: % Control): 95%
- pest or weed control at 125 ppm (Wild Oats; read-out: % Control): 90%
- pest or weed control at 250 ppm (Wild Oats; read-out: % Control): 100%
- pest or weed control at 500 ppm (Wild Oats; read-out: % Control): 100%
- plant injury at 15.6 ppm (Wheat [1]): 0%
- plant injury at 31.25 ppm (Wheat [1]): 0%
- plant injury at 62.5 ppm (Wheat [1]): 0%
- plant injury at 125 ppm (Wheat [1]): 0%
- plant injury at 250 ppm (Wheat [1]): 0%
- plant injury at 500 ppm (Wheat [1]): 40%
- % Control (Cheatgrass; 1.56 ppm): 0%
- % Control (Cheatgrass; 3.1 ppm): 0%
- % Control (Cheatgrass; 6.3 ppm): 0%
- % Control (Cheatgrass; 12.5 ppm): 0%
- % Control (Cheatgrass; 25 ppm): 0%
- % Control (Cheatgrass; 50 ppm): 10%
- % Control (Cheatgrass; 100 ppm): 40%
- % Control (Yellow Foxtail; 1.56 ppm): 50%
- % Control (Yellow Foxtail; 3.1 ppm): 80%
- % Control (Yellow Foxtail; 6.3 ppm): 100%
- % Control (Yellow Foxtail; 12.5 ppm): 100%
- % Control (Yellow Foxtail; 25 ppm): 100%
- % Control (Yellow Foxtail; 50 ppm): 100%
- % Control (Yellow Foxtail; 100 ppm): 100%
- % Control (Green Foxtail [2]; 1.56 ppm): 95%
- % Control (Green Foxtail [2]; 3.1 ppm): 100%
- % Control (Green Foxtail [2]; 6.3 ppm): 100%
- % Control (Green Foxtail [2]; 12.5 ppm): 100%
- % Control (Green Foxtail [2]; 25 ppm): 100%
- % Control (Green Foxtail [2]; 50 ppm): 100%
- % Control (Green Foxtail [2]; 100 ppm): 100%
- % Control (Blackgrass [3]; 1.56 ppm): 50%
- % Control (Blackgrass [3]; 3.1 ppm): 50%
- % Control (Blackgrass [3]; 6.3 ppm): 100%
- % Control (Blackgrass [3]; 12.5 ppm): 100%
- % Control (Blackgrass [3]; 25 ppm): 99%
- % Control (Blackgrass [3]; 50 ppm): 100%
- % Control (Blackgrass [3]; 100 ppm): 100%
- % Control (Barley; 15.6 ppm): 0%
- % Control (Barley; 31.25 ppm): 0%
- % Control (Barley; 62.5 ppm): 0%
- % Control (Barley; 125 ppm): 0%
- % Control (Barley; 250 ppm): 0%
- % Control (Barley; 500 ppm): 50%
